Reference: article PMC9841576, “Characterisation of C101248: A novel selective THIK-1 channel inhibitor for the modulation of microglial NLRP3-inflammasome” (Neuropharmacology, 2023)

Tests used:
Format in all cases: cell-based
[1] = test system: NLRP3-dependent release of IL-1β; test: LPS/ATP-induced IL-1β release from differentiated THP1 cells overexpressing human THIK-1; conditions: 1 μM, THIK-1 overexpressing THP1 cells
Description: (§1) THP1 cells, obtained from ATCC, are monocytes isolated from peripheral blood of a leukaemia patient. THP1 cells were grown in RPMI 1640 supplemented with 10% fetal bovine serum (FBS, Hyclone), 1% PenStrep (Invitrogen), and 1% GlutaMax (Invitrogen), and 0.05 mM of 2-mercaptoethanol. To overexpress human THIK-1, THP1 cells were differentiated with 100 ng/ml PMA for 24 h prior to transfection with THIK-1 mRNA synthesized as described in the supplementary material. Cell suspensions (2.5 × 10^6 cells in […]) in the presence of 200 μg/ml mRNA were electroporated with the MaxCyte (STX instrument) in an OC-25 MaxCyte Electroporation cassette using manufacturer settings for THP1 cells. Cell suspensions were transferred to a 6-well plate and allowed to recover for 20 min at 37 °C. Cells were seeded into 384-well plates (10,000 cells/well) for thallium flux assays or 96-well plates (50,000 cells/well) for inflammasome assays the following day. Overexpressing and mock-transfected cells were primed with 100 ng/ml of LPS for 3.5 h prior to addition of compounds 30 min before stimulation with 5 mM ATP. Supernatants were collected 2 h after addition of ATP and stored at −20 °C until the detection of IL-1β.
IL-1β from culture supernatants was measured with DuoSet ELISA kit (R&D Systems) following the manufacturer instructions.

THIK-1 [2] = target: T1, THIK-1 (Homo sapiens, UniProt Q9HB14); test: FLIPR thallium influx assay, HEK-hTHIK-1 cells; conditions: HEK-hTHIK-1, normalised to TPA controls; read-out: IC50, inhibition of THIK-1 constitutive activity (thallium influx)
T1 construct: expressed in transfected cells
T1 sequence (Q9HB14 1-408): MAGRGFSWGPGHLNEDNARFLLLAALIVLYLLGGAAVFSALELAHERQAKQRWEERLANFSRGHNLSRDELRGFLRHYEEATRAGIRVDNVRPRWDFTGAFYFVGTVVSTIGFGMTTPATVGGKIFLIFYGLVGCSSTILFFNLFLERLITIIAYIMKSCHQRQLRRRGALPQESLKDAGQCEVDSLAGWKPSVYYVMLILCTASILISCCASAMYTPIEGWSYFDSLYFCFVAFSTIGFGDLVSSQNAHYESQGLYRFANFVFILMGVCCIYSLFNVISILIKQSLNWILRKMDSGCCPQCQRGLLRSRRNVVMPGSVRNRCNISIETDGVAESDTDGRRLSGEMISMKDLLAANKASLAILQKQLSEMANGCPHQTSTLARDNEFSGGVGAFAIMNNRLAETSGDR
Description: HEK-293 cells were transfected with human THIK-1, TREK-1, TWIK-2, or mouse THIK-1 cDNA cloned into pcDNA3.1, using either Fugene HD transfection reagent (Promega) or electroporation (MaxCyte STX instrument). Cells stably expressing the relevant genes were selected based on resistance to 500 μg/ml geneticin (Gibco). For human THIK-1 and TWIK-2 expressing cells, monoclonal lines were isolated by limited dilution cloning; mouse THIK-1 and human TREK-1 expressing cells were maintained as polyclonal pools. The HEK-293 pools and monoclones stably expressing the relevant genes were maintained in DMEM (Life Technologies), supplemented with 10% FCIII (HyClone, Fetal clone III) and 500 μg/ml geneticin. A CHO-Kv2.1 cell line was purchased from Millipore (accession NM_004975) and maintained in F12 (Life Technologies), supplemented with 10% FCSIII (Thermo Scientific) and 500 μg/ml geneticin (Life Technologies). For thallium flux assays, banks of frozen cell aliquots were prepared the day prior to assay, cells were thawed into media and seeded into PDL coated 384-well plates (Corning) at 25,000 (human/mouse THIK-1, TREK-1) or 30,000 (TWIK-2) cells/well (25 μl/well). CHO-Kv2.1 cells were seeded into non-PDL coated plates (Corning) at 5000 cells/well. Plated cells were incubated overnight at 37 °C, 5% CO2 in a humidified atmosphere. For Q-Patch assays, cells were cultured for 7 days prior to assay, dissociated, and diluted to 1–2.5 million/ml in EX-CELL ACF serum free media containing HEPES (25 mM; Life Technologies), penicillin/streptomycin (100 U/ml, 100 μg/ml; Life Technologies) and a trypsin inhibitor (0.04 mg/ml).
A fluorescence-based thallium influx assay (Molecular Devices potassium assay kit) was used to monitor channel activity. In brief, component A was reconstituted in 17 ml of chloride-free assay buffer (130 mM sodium D-gluconate, 5 mM potassium D-gluconate, 2 mM calcium D-gluconate, 1 mM magnesium D-gluconate, 5 mM NaHCO3, 20 mM HEPES; pH adjusted to 7.4 with NaOH and filtered (0.45 μm filter)) and component C reconstituted in 30 μl of DMSO. Components A and C were combined, and probenecid was added (Life Technologies; final assay concentration (FAC) 4.75 mM for HEK cell lines and 2.47 mM for CHO-Kv2.1) to provide the final dye solution. Media was removed from the cell plates and replaced with dye (20 μl/well) and the plates were incubated at room temperature in the dark for 60 min. On the day of the assay, a diluted compound plate (3x FAC in 1.5% DMSO) was created. Control wells contained either DMSO vehicle (1.5%, 3x FAC) or tetrapentylammonium chloride (TPA; Sigma, 258962; 1.5 mM in 1.5% DMSO, 3x FAC). A 3x thallium stimulation plate was also prepared, to provide a FAC of either 1 mM (human THIK-1) or 3 mM (mouse THIK-1, TREK-1, TWIK-2) thallium sulphate (in assay buffer). For Kv2.1, the FAC of thallium sulphate was 2.6 mM and this was prepared in assay buffer containing potassium sulphate (Sigma P9458; FAC 23.3 mM). Following 60 min of dye loading, 10 μl from the 3x FAC compound plate was added into the cell plate, which was then incubated for 15 min at room temperature in the dark. Using a fluorescent imaging plate reader (FLIPR) tetra plate reader, 15 μl thallium stimulus solution was added to the cell plate and the fluorescence signal recorded every second for 1 min (excitation: 470–495 nm, emission: 515–575 nm).

THIK-1 [3] = target: T1, THIK-1; test: Thallium influx in human THIK-1 overexpressing differentiated THP1 cells; conditions: THIK-1 mRNA-transfected differentiated THP1 cells; read-out: IC50, block of thallium influx
Description: as §1, with “Overexpressing and mock-transfected cells were primed with 100 ng/ml of LPS for 3.5 h prior to addition of compounds 30 min before stimulation with 5 mM ATP. Supernatants were collected 2 h after addition of ATP and stored at −20 °C until the detection of IL-1β.” left out
A fluorescence-based thallium influx assay (Molecular Devices potassium assay kit) was used to monitor channel activity. […] Using a fluorescent imaging plate reader (FLIPR) tetra plate reader, 15 μl thallium stimulus solution was added to the cell plate and the fluorescence signal recorded every second for 1 min (excitation: 470–495 nm, emission: 515–575 nm).

## CC(C)(O)c1coc(S(=O)(=O)NC(=O)Nc2c3c(cc4c2CCC4)CCC3)c1 [MCC950, reference compound]
[1]
  effect on ATP-stimulated IL-1β release: completely blocked

## CCCCC[N+](CCCCC)(CCCCC)CCCCC [TPA, tetrapentylammonium chloride, reference compound]
THIK-1 [2]
  IC50: 4.7 µM
THIK-1 [3]
  IC50: 6.8 µM
